# According to patent US20090099186A1, “INHIBITORS OF VIRAL REPLICATION” (priority 2005, published 2009):
# Target: T1, full-length NS3 (1-631) protein (HCV NS3 helicase) (Hepatitis C virus genotype 1a, UniProt P27958)
# T1 construct: Recombinant, purified, full-length NS3 (1-631) protein
# Test: HCV Helicase TR-FRET Unwinding Assay
# Format: biochemical
# Method: HCV Helicase TR-FRET Unwinding Assay
# Compound potency was assessed by determining the ability of the compound to inhibit DNA unwinding in an in vitro homogeneous time-resolved fluorescence quench assay. The helicase substrate (Perkin Elmer, TruPoint Helicase Substrate) consisted of partially double-stranded DNA, with one oligonucleotide strand labeled with a fluorescent europium chelate and the other strand labeled with the QSY™ 7 quencher. In the presence of helicase and ATP, this DNA is unwound and a large increase in fluorescence is observed. An excess of an unlabeled oligonucleotide (also from Perkin Elmer, TruPoint Helicase Capture Strand) that is complementary to the quencher strand was included in the assay to prevent reannealing of the europium and QSY-labeled strands.
# The assay buffer consisted of 25 mM MOPS (pH 7.0), 500 μM MgCl2, and 0.005% (v/v) Triton X-100, with DMSO being present at a final concentration of 2% (v/v). Recombinant, purified, full-length NS3 (1-631) protein was included in these assays at a final concentration of 2.5 nM. Compound was incubated with NS3 protein for 5 minutes in a 384-well white Proxiplate™ (Perkin Elmer) prior to the addition of TruPoint Helicase Substrate (4 nM final concentration), TruPoint Helicase Capture Strand (15 nM final concentration), and ATP (100 μM final concentration). The final reaction volume was 20 μL. Immediately after the addition of the substrates and capture strand, the initial rates of the unwinding reactions were determined at room temperature via an Envision (Perkin Elmer) plate reader. The rates of reactions containing test compound were compared to those lacking test compound in order to evaluate compound potency. IC50 values were determined using the curve-fitting software XLfit (IDBS).
# [1] = Table 4, inhibition of DNA unwinding, 2.5 nM NS3, 100 μM ATP
# [2] = second TR-FRET IC50 column (c2) of Table 4, same head as the first, inhibition of DNA unwinding
# T1 sequence (P27958 1027-1657 T1100M/T1173A/K1247Q/A1303G/S1327L/G1556E/R1608W): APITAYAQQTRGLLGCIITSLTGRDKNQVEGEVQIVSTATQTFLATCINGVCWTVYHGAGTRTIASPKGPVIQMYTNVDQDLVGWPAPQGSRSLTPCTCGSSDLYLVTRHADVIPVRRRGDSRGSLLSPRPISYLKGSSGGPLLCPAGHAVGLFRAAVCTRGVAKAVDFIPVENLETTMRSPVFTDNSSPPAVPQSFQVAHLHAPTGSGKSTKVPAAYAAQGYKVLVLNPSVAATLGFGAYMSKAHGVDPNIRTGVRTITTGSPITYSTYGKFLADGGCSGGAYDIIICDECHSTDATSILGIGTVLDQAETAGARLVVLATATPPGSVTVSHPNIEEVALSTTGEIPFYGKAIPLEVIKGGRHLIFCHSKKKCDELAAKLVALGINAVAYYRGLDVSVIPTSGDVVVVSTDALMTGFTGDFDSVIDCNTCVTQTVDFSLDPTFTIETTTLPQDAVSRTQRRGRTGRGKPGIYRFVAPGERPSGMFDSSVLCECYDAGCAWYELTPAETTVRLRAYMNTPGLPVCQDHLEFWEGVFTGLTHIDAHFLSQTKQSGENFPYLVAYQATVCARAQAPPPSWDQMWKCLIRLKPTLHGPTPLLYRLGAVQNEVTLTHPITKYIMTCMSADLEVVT
Structure (SMILES),IC50 [1] [µM],IC50 [2] [µM]
"O=C(/C=C/c1ccc(Sc2ccc(F)cc2)cc1Cl)N1CCN(C(=O)c2ccoc2)CC1 [Example 1B, (E)-3-(2-chloro-4-(4-fluorophenylthio)phenyl)-1-(4-(furan-3-carbonyl)piperazin-1-yl)prop-2-en-1-one]",10 to 50,10 to 50
"O=C(/C=C/c1ccc(Sc2ccc(F)cc2)cc1Cl)N1CCCCC1 [Example 2, (E)-3-(2-chloro-4-(4-fluorophenylthio)phenyl)-1-(piperidin-1-yl)prop-2-en-1-one]",< 10,< 10
"O=C(/C=C/c1ccc(Sc2ccc(F)cc2)cc1Cl)N1CCOCC1 [Example 3, (E)-3-(2-chloro-4-(4-fluorophenylthio)phenyl)-1-morpholinoprop-2-en-1-one]",10 to 50,10 to 50
"CCN(CC)C(=O)/C=C/c1ccc(Sc2ccc(F)cc2)cc1Cl [Example 4, (E)-3-(2-chloro-4-(4-fluorophenylthio)phenyl)-N,N-diethylacrylamide]",10 to 50,10 to 50
"COC(=O)C1CCN(C(=O)/C=C/c2ccc(Sc3ccc(F)cc3)cc2Cl)CC1 [Example 5, (E)-methyl 1-(3-(2-chloro-4-(4-fluorophenylthio)phenyl)acryloyl)piperidine-4-carboxylate]",10 to 50,10 to 50
O=C(O)C1CCN(C(=O)/C=C/c2ccc(Sc3ccc(F)cc3)cc2Cl)CC1 [Example 6],10 to 50,10 to 50
"COC(=O)c1cccc(NC(=O)/C=C/c2ccc(Sc3ccc(F)cc3)cc2Cl)c1 [Example 7, (E)-methyl 3-(3-(2-chloro-4-(4-fluorophenylthio)phenyl)acrylamido)benzoate]",< 10,< 10
"O=C(/C=C/c1ccc(Sc2ccc(F)cc2)cc1Cl)Nc1cccc(C(=O)O)c1 [Example 8, (E)-3-(3-(2-chloro-4-(4-fluorophenylthio)phenyl)acrylamido)benzoic acid]",< 10,< 10
"CC(=O)N1CCN(C(=O)/C=C/c2ccc(N(C)C)cc2Cl)CC1 [Example 9B, (E)-1-(4-acetylpiperazin-1-yl)-3-(2-chloro-4-(dimethylamino)phenyl)prop-2-en-1-one]",< 10,< 10
CN(C)c1ccc(/C=C/C(=O)NCCN2CCOCC2)c(Cl)c1 [Example 10],10 to 50,10 to 50
"CN(C)c1ccc(/C=C/C(=O)NCCCn2ccnc2)c(Cl)c1 [Example 11, (E)-N-(3-(1H-imidazol-1-yl)propyl)-3-(2-chloro-4-(dimethylamino)phenyl)acrylamide]",10 to 50,10 to 50
"CN(C)c1ccc(/C=C/C(=O)N2CCN(C(=O)c3ccoc3)CC2)c(Cl)c1 [Example 12, (E)-3-(2-chloro-4-(dimethylamino)phenyl)-1-(4-(furan-3-carbonyl)piperazin-1-yl)prop-2-en-1-one]",10 to 50,10 to 50
"CN(C)c1ccc(/C=C/C(=O)N2CCOCC2)c(Cl)c1 [Example 13, (E)-3-(2-chloro-4-(dimethylamino)phenyl)-1-morpholinoprop-2-en-1-one]",10 to 50,10 to 50
"COC(=O)C1CCN(C(=O)/C=C/c2ccc(N(C)C)cc2Cl)CC1 [Example 14, (E)-methyl 1-(3-(2-chloro-4-(dimethylamino)phenyl)acryloyl)piperidine-4-carboxylate]",10 to 50,10 to 50
CN(C)c1ccc(/C=C/C(=O)N2CCC(C(=O)O)CC2)c(Cl)c1 [Example 15],10 to 50,10 to 50
"Cc1cc(/C=C/C(=O)N2CCCCC2)c(Cl)cc1Sc1ccc(F)cc1 [Example 16G, (E)-3-(2-chloro-4-(4-fluorophenylthio)-5-methylphenyl)-1-(piperidin-1-yl)prop-2-en-1-one]",10 to 50,10 to 50
"Cc1cc(/C=C/C(=O)N2CCN(C(=O)c3ccoc3)CC2)c(Cl)cc1Sc1ccc(F)cc1 [Example 17, (E)-3-(2-chloro-4-(4-fluorophenylthio)-5-methylphenyl)-1-(4-(furan-3-carbonyl)piperazin-1-yl)prop-2-en-1-one]",10 to 50,10 to 50
"CCN(CC)C(=O)/C=C/c1cc(C)c(Sc2ccc(F)cc2)cc1Cl [Example 18, (E)-3-(2-chloro-4-(4-fluorophenylthio)-5-methylphenyl)-N,N-diethylacrylamide]",10 to 50,10 to 50

Structure (SMILES),IC50 [1] [µM],IC50 [2] [µM]
"CCOC(=O)CCNC(=O)/C=C/c1cc(C)c(Sc2ccc(F)cc2)cc1Cl [Example 19, (E)-ethyl 3-(3-(2-chloro-4-(4-fluorophenylthio)-5-methylphenyl)acrylamido)propanoate]",10 to 50,10 to 50
"Cc1cc(/C=C/C(=O)NCCC(=O)O)c(Cl)cc1Sc1ccc(F)cc1 [Example 20, (E)-3-(3-(2-chloro-4-(4-fluorophenylthio)-5-methylphenyl)acrylamido)propanoic acid]",10 to 50,10 to 50
"Cc1cc(/C=C/C(=O)Nc2cccc(C(=O)O)c2)c(Cl)cc1Sc1ccc(F)cc1 [Example 21, (E)-3-(3-(2-chloro-4-(4-fluorophenylthio)-5-methylphenyl)acrylamido)benzoic acid]",< 10,< 10
"Cc1cc(/C=C/C(=O)N2CCC(C(=O)O)CC2)c(Cl)cc1Sc1ccc(F)cc1 [Example 22, (E)-1-(3-(2-chloro-4-(4-fluorophenylthio)-5-methylphenyl)acryloyl)piperidine-4-carboxylic acid]",10 to 50,< 10
"Cc1cc(/C=C/C(=O)N2CCOCC2)c(Cl)cc1Sc1ccc(F)cc1 [Example 23, (E)-3-(2-chloro-4-(4-fluorophenylthio)-5-methylphenyl)-1-morpholinoprop-2-en-1-one]",10 to 50,10 to 50
"COc1ccccc1Sc1ccc(/C=C/C(=O)NCCCN(C)C)c(Cl)c1 [Example 24B, (E)-3-(2-chloro-4-(2-methoxyphenylthio)phenyl)-N-(3-(dimethylamino)propyl)acrylamide]",10 to 50,10 to 50
"COc1ccccc1Sc1ccc(/C=C/C(=O)NCCC2CCN(C)C2)c(Cl)c1 (stereo not shown) [Example 25, (E)-3-(2-chloro-4-(2-methoxyphenylthio)phenyl)-N-(2-(1-methylpyrrolidin-3-yl)ethyl)acrylamide]",10 to 50,10 to 50
"COc1ccccc1Sc1ccc(/C=C/C(=O)N2CCC(C(=O)O)CC2)c(Cl)c1 [Example 26, (E)-1-(3-(2-chloro-4-(2-methoxyphenylthio)phenyl)acryloyl)piperidine-4-carboxylic acid]",10 to 50,10 to 50
"COc1ccccc1Sc1ccc(/C=C/C(=O)N2CCN(C(=O)c3ccoc3)CC2)c(Cl)c1 [Example 27, (E)-3-(2-chloro-4-(2-methoxyphenylthio)phenyl)-1-(4-(furan-3-carbonyl)piperazin-1-yl)prop-2-en-1-one]",10 to 50,10 to 50
"CCN(CC)C(=O)/C=C/c1ccc(Sc2ccccc2OC)cc1Cl [Example 28, (E)-3-(2-chloro-4-(2-methoxyphenylthio)phenyl)-N,N-diethylacrylamide]",10 to 50,10 to 50
"COc1ccccc1Sc1ccc(/C=C/C(=O)NCCC(=O)O)c(Cl)c1 [Example 29, (E)-3-(3-(2-chloro-4-(2-methoxyphenylthio)phenyl)acrylamido)propanoic acid]",10 to 50,10 to 50
"COc1ccccc1Sc1ccc(/C=C/C(=O)N2CCC(N3CCCC3)CC2)c(Cl)c1 [Example 30, (E)-3-(2-chloro-4-(2-methoxyphenylthio)phenyl)-1-(4-(pyrrolidin-1-yl)piperidin-1-yl)prop-2-en-1-one]",10 to 50,10 to 50
"O=C(O)C1CCN(C(=O)/C=C/c2ccc(Sc3ccc(F)cc3)cc2C(F)(F)F)CC1 [Example 31B, (E)-1-(3-(4-(4-fluorophenylthio)-2-(trifluoromethyl)phenyl)acryloyl)piperidine-4-carboxylic acid]",10 to 50,10 to 50
"COc1ccccc1Sc1ccc(/C=C/C(=O)N2CCC(C(=O)O)CC2)c(Cl)c1Cl [Example 32D, (E)-1-(3-(2,3-dichloro-4-(2-methoxyphenylthio)phenyl)acryloyl)piperidine-4-carboxylic acid]",10 to 50,10 to 50
O=C(/C=C/c1ccccc1Cl)NCCO [Example 33],10 to 50,10 to 50
"O=C(/C=C/c1ccccc1Cl)N1Cc2ccccc2C1 [Example 34, (E)-3-(2-chlorophenyl)-1-(isoindolin-2-yl)prop-2-en-1-one]",10 to 50,10 to 50
"O=C(/C=C/c1ccccc1Cl)Nc1ccccc1 [Example 35, (E)-3-(2-chlorophenyl)-N-phenylacrylamide]",10 to 50,10 to 50
